Values of other authors, collected in patent US20080195229A1, “Decellularized pericardial tissue” (priority 2007, published 2008).

How the values were obtained:
[1] = tested on: rabbit; details: in vivo, iv
[2] = tested on: 3T3 fibroblasts; details: in vitro
[3] = tested on: Chinese hamster ovary (CHO-K1) cells; details: in vitro

SMILES | solubility in alcohol (alcohol) | solubility in water (water) | LD50 [1] | cytotoxicity compared with glutaraldehyde [2] | clastogenic response (genotoxicity) [3]
C[C@H](CCC(=O)O)[C@H]1CC[C@H]2[C@@H]3CC[C@@H]4C[C@H](O)CC[C@]4(C)[C@H]3C[C@H](O)[C@]12C [Deoxycholic acid] | soluble | sparingly soluble | 15 mg/kg |  | 
COC(=O)C1=CO[C@@H](O)[C@@H]2C(CO)=CC[C@H]12 [genipin] |  |  |  | substantially less cytotoxic than glutaraldehyde | does not cause clastogenic response
